{"source": "patent US4818753A", "about": "“Synthesis and method of use for 2, 4 diaminoquinazoline” (SRI International, priority 1987, dated 1989)", "format_in_all_cases": "cell-based", "key": {"[1]": {"test_system": "Microsporum gypseum (14683)", "experiment": "Broth dilution assay, F12", "conditions": "Nannizzia gypsea", "method": "(§1) Both broth dilution and agar dilution assays were used to assess the antifungal activity of the compounds of the invention. The cultures were maintained in Sabouraud dextrose broth (SDB) and diluted with […]. 2.5 l of SDB was prepared and distributed into sterile vessels as follows: 49 ml into 1 vessel, 27 ml into 3 vessels, 45 ml into 2 vessels.\n(§2) Five mg/ml concentration of each compound was prepared using DMSO as the solvent; warming and sonication were necessary to dissolve each compound completely. The compounds were then diluted in SDB according to the following protocol:\n(§3) 5. 1 ug/ml--5 ml (3)+45 ml SDB\n(§4) The compound at each concentration in SDB was then dispensed into 6 tubes each containing 4 ml […]. Controls (without any compound) were also prepared to insure that the solvent itself was not fungicidal or fungistatic.\n(§5) Cultures were grown in SDB for 24 h at 30° C. C. albicans and C. neoformans were diluted 1:10 in SDB before inoculation. Inoculation volume for yeasts was 2 drops of diluted cells per tube. The fungal cultures were homogenized before inoculation. The same volume was added, but without dilution. All tubes were incubated at room temperature on a rotating wheel. After 16 h of incubation at room temperature, the fungistatic assay was set up on agar plates. […] Yeasts were inoculated onto SDA (the corresponding agar) plates and fungi onto mycosel agar plates. These plates were then incubated at room temperature."}, "[2]": {"test_system": "Cryptococcus neoformans (13690)", "experiment": "Broth dilution assay, F3", "method": "as §1, §2, §3, §4, §5"}, "[3]": {"test_system": "18 yeastlike and 3 Filamentus fungii", "experiment": "Agar dilution assay, whole panel", "conditions": "for MIC: 48 h", "text": "(§6) For the agar dilution assay, the test panel consisted of 18 yeastlike and 3 Filamentus fungii. Four media were used. These were yeast nitrogen base dextrose (0.5% agar) (YNBDA); pH 5.5; YNBDA with pH adjusted to pH 7.5; and micrological agar (MA), pH 7.0; and Sabouraud dextrose agar, pH 5.7. The media was manufactured by Difco (Detroit, MI) and prepared according to the manufacturer's instructions.\n(§7) The test compounds were solubilized in 10% aqueous DMSO; the control drug, Nystatin, was solublized in 10% aqueous DMF. The drugs were serially diluted twofold in sterile water to yield concentrations of 1.28 mg/ml to […]. One ml of diluted drug was added to 9 ml of cooled (50° C.) molten agar in plastic petri plates to yield final drug concentrations in the agar ranging from 128 to 0.063 ug/ml. Appropriate solvent and media control plates were prepared as well, and all plates stored in the dark at 4° C. overnight. The yeast cultures, maintained in yeast maltose (YM; Difco), were transferred to fresh YM medium and incubating overnight at 37° C. with shaking at 250 rpm. After incubation each culture was diluted in sterile saline to yield concentrations of 3×10^5 to 3×10^6 cfu/ml. Isolates of aspergillis and penicillium were made on potato dextrose agar slants, and spore suspensions were made following vigorous shaking with sterile glass beads. The spore preparation were used as inocula for these fungi.\n(§8) Each prepared place was inoculated with the 21-member panel using a Denleigh multipoint inoculator (Sussex, England). The inoculator delivers approximately 1 ul to the agar surface, resulting in inoculation of from 3×10^2 to 3×10^3 cfu. The plates were incubated at 28° C. for 48 h, and the minimum inhibitory concentrations (MIC) of each drug were recorded as the lower concentration of the drug permitting no growth or growth of less than 3 cfu/spot."}, "[4]": {"test_system": "Torulopsis glabrata MY1059", "experiment": "Agar dilution assay", "conditions": "Nakaseomyces glabratus, MY1059, 48 h, read-out: Minimum inhibitory concentration", "text": "as §6, §7, §8"}, "[5]": {"test_system": "Ca. albicans MY1055", "experiment": "Agar dilution assay", "conditions": "Candida albicans, MY1055, 48 h, read-out: Minimum inhibitory concentration", "text": "as §6, §7, §8"}, "[6]": {"test_system": "Ca. albicans MY1029", "experiment": "Agar dilution assay", "conditions": "Candida albicans, MY1029, 48 h, read-out: Minimum inhibitory concentration", "text": "as §6, §7, §8"}, "[7]": {"test_system": "Cr. neoformans MY1146", "experiment": "Agar dilution assay", "conditions": "Cryptococcus neoformans, MY1146, 48 h, read-out: Minimum inhibitory concentration", "text": "as §6, §7, §8"}, "[8]": {"test_system": "Ca. parapsilosis MY1009", "experiment": "Agar dilution assay", "conditions": "MY1009, 48 h, read-out: Minimum inhibitory concentration", "text": "as §6, §7, §8"}, "[9]": {"test_system": "Ca. guilliermondii MY1019", "experiment": "Agar dilution assay", "conditions": "Meyerozyma guilliermondii, MY1019, 48 h, read-out: Minimum inhibitory concentration", "text": "as §6, §7, §8"}, "[10]": {"test_system": "Ca. albicans MY0992", "experiment": "Agar dilution assay", "conditions": "Candida albicans, MY0992, 48 h, read-out: Minimum inhibitory concentration", "text": "as §6, §7, §8"}, "[11]": {"test_system": "Epidermophyton floccosum (15693)", "experiment": "Broth dilution assay, F4", "method": "as §1, §2, §3, §4, §5"}, "[12]": {"test_system": "Candida", "experiment": "Growth of Candida cultures with compound and/or SMX (FIG. 1)"}, "[13]": {"test_system": "Candida albicans (10231)", "experiment": "Broth dilution assay, F1", "method": "as §1, §2, §3, §4, §5"}}, "note": "“Also recorded” adds a separate entry of the source. Where two headings read alike, the source gives them in different places."}
{"smiles": "CCCCCCCCc1ccc2nc(N)nc(N)c2c1C", "note": "[2,4-Diamino-5-methyl-6-n-octylquinazoline]", "values": [{"measurement": "MFC", "setting": "[1]; Table 2, Sabouraud Dextrose Broth pH 5.5, read-out: C Fungicidal", "value": 100, "unit": "µg/mL"}, {"measurement": "MIC", "setting": "[1]; Table 2, Sabouraud Dextrose Broth pH 5.5, read-out: S Fungistatic", "value": 30, "unit": "µg/mL"}, {"measurement": "MFC", "setting": "[2]; Table 2, F3, Sabouraud Dextrose Broth pH 5.5, read-out: C Fungicidal", "value": 3, "unit": "µg/mL"}, {"measurement": "MIC", "setting": "[2]; Table 2, F3, Sabouraud Dextrose Broth pH 5.5, read-out: S Fungistatic", "value": 3, "unit": "µg/mL"}, {"measurement": "MIC", "setting": "[3]; pH 5.7", "value": "> 128", "unit": "µg/mL"}, {"measurement": "MIC", "setting": "[3]; Candida tropicalis, pH 5.5", "value": "≥ 128", "unit": "µg/mL"}, {"measurement": "antifungal activity in words", "setting": "[3]; Table 3 panel", "value": "inhibitory for a large variety of yeast and Filamentus fungii; also recorded: extremely toxic with regard to a wide variety of fungi"}, {"measurement": "MIC", "setting": "[4]; MA pH 7.0", "value": 16, "unit": "µg/mL"}, {"measurement": "MIC", "setting": "[4]; SDA pH 5.7", "value": "> 128", "unit": "µg/mL"}, {"measurement": "MIC", "setting": "[4]; YNBDA pH 5.5", "value": "> 128", "unit": "µg/mL"}, {"measurement": "MIC", "setting": "[4]; YNBDA pH 7.5", "value": 8, "unit": "µg/mL"}, {"measurement": "MIC", "setting": "[5]; MA pH 7.0", "value": 32, "unit": "µg/mL"}, {"measurement": "MIC", "setting": "[5]; SDA pH 5.7", "value": "> 128", "unit": "µg/mL"}, {"measurement": "MIC", "setting": "[5]; YNBDA pH 5.5", "value": "> 128", "unit": "µg/mL"}, {"measurement": "MIC", "setting": "[5]; YNBDA pH 7.5", "value": 32, "unit": "µg/mL"}, {"measurement": "MIC", "setting": "[6]; MA pH 7.0", "value": 32, "unit": "µg/mL"}, {"measurement": "MIC", "setting": "[6]; SDA pH 5.7", "value": "> 128", "unit": "µg/mL"}, {"measurement": "MIC", "setting": "[6]; YNBDA pH 5.5", "value": "> 128", "unit": "µg/mL"}, {"measurement": "MIC", "setting": "[6]; YNBDA pH 7.5", "value": 32, "unit": "µg/mL"}, {"measurement": "MIC", "setting": "[7]; MA pH 7.0", "value": 4, "unit": "µg/mL"}, {"measurement": "MIC", "setting": "[7]; SDA pH 5.7", "value": 16, "unit": "µg/mL"}, {"measurement": "MIC", "setting": "[7]; YNBDA pH 5.5", "value": 128, "unit": "µg/mL"}, {"measurement": "MIC", "setting": "[7]; YNBDA pH 7.5", "value": 8, "unit": "µg/mL"}, {"measurement": "MIC", "setting": "[8]; MA pH 7.0", "value": 8, "unit": "µg/mL"}, {"measurement": "MIC", "setting": "[8]; SDA pH 5.7", "value": "> 128", "unit": "µg/mL"}, {"measurement": "MIC", "setting": "[8]; YNBDA pH 5.5", "value": "> 128", "unit": "µg/mL"}, {"measurement": "MIC", "setting": "[8]; YNBDA pH 7.5", "value": 16, "unit": "µg/mL"}, {"measurement": "MIC", "setting": "[9]; MA pH 7.0", "value": 16, "unit": "µg/mL"}, {"measurement": "MIC", "setting": "[9]; SDA pH 5.7", "value": "> 128", "unit": "µg/mL"}, {"measurement": "MIC", "setting": "[9]; YNBDA pH 5.5", "value": "> 128", "unit": "µg/mL"}, {"measurement": "MIC", "setting": "[9]; YNBDA pH 7.5", "value": 16, "unit": "µg/mL"}, {"measurement": "MIC", "setting": "[10]; MA pH 7.0", "value": 16, "unit": "µg/mL"}, {"measurement": "MIC", "setting": "[10]; SDA pH 5.7", "value": "> 128", "unit": "µg/mL"}, {"measurement": "MIC", "setting": "[10]; YNBDA pH 5.5", "value": "> 128", "unit": "µg/mL"}, {"measurement": "MIC", "setting": "[10]; YNBDA pH 7.5", "value": 16, "unit": "µg/mL"}, {"measurement": "MFC", "setting": "[11]; Table 2, F4, Sabouraud Dextrose Broth pH 5.5, read-out: C Fungicidal", "value": 30, "unit": "µg/mL"}, {"measurement": "MIC", "setting": "[11]; Table 2, F4, Sabouraud Dextrose Broth pH 5.5, read-out: S Fungistatic", "value": 1, "unit": "µg/mL"}, {"measurement": "cfu/ml after 9 h", "setting": "[12]; 10 ug compound + 100 ug SMX, after 9 h", "value": "10^2 cfu/ml"}, {"measurement": "cfu/ml after 36 h", "setting": "[12]; 10 ug compound + 100 ug SMX", "value": "zero"}, {"measurement": "cfu/ml after 36 h", "setting": "[12]; 10 ug of compound alone", "value": "10^4 cfu/ml"}, {"measurement": "cfus after 9 h", "setting": "[12]; 100 ug of each compound (with SMX), after 9 h", "value": "no cfus"}, {"measurement": "synergistic activity with sulfa drug", "setting": "[12]; with sulfa drug (SMX in FIG. 1)", "value": "synergistic activity"}, {"measurement": "MFC", "setting": "[13]; Table 2, F1, Sabouraud Dextrose Broth pH 5.5, read-out: C Fungicidal", "value": 100, "unit": "µg/mL"}, {"measurement": "MIC", "setting": "[13]; Table 2, F1, Sabouraud Dextrose Broth pH 5.5, read-out: S Fungistatic", "value": 10, "unit": "µg/mL"}]}
